# Laboratory results published in ChEMBL document CHEMBL4364320, “An insight into the medicinal perspective of synthetic analogs of indole: A review” (Eur J Med Chem, 2019).
# How the values were obtained:
# [1] = system: Mycobacterium tuberculosis; experiment: Antimycobacterial activity against Mycobacterium tuberculosis; assay type: functional
# Plasmodium falciparum = experiment: Antiplasmodial activity against chloroquine-resistant Plasmodium falciparum Dd2; assay type: functional, organism-based
# [2] = target: T1, Prostaglandin G/H synthase 2 (Homo sapiens, UniProt P35354); experiment: Inhibition of recombinant human COX2 assessed as decrease in PGE2 release after 10 mins by EIA
# T1 sequence (P35354 whole entry): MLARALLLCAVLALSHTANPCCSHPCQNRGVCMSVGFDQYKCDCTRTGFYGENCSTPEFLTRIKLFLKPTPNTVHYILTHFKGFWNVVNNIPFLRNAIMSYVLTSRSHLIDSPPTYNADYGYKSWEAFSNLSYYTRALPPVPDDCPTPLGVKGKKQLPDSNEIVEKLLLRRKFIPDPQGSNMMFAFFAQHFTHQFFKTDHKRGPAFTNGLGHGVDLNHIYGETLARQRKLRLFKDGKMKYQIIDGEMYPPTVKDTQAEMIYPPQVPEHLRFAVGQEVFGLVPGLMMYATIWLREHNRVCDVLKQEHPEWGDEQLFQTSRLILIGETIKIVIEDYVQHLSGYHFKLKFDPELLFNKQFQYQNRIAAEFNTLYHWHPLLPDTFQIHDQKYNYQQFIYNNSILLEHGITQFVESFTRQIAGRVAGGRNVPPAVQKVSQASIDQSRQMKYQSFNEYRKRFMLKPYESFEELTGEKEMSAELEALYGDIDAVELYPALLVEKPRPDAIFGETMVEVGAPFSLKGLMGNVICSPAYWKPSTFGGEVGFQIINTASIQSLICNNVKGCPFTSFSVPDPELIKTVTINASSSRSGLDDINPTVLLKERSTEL
# RAW264.7 [3] = experiment: Inhibition of nitric oxide production in mouse RAW264.7 cells by griess assay; assay type: functional, cell-based
# Mus musculus = experiment: Antidiabetic activity in db/db mouse assessed as reduction in serum glucose level at 10 to 30 mg/kg, po after 1 week relative to control; assay type: functional; parameters: scale not given: the % may be the effect or the level left
# [4] = system: Human immunodeficiency virus 1; experiment: Antiviral activity against HIV1 infected in human MT4 cells; assay type: functional, organism-based; settings: Human immunodeficiency virus 1, MT4
# [5] = system: Human immunodeficiency virus 1; experiment: Antiviral activity against wild type HIV1 3B infected in human MT2 cells after 3 days by BrightGlo luciferase reporter gene assay; assay type: functional, organism-based; settings: Human immunodeficiency virus 1, 3B, MT2, 72 h
# RAW264.7 [6] = experiment: Inhibition of LPS-induced nitric oxide production in mouse RAW264.7 cells preincubated for 15 mins followed by LPS stimulation measured after 20 hrs by griess assay; assay type: functional, cell-based
# [7] = Inhibition of TNFalpha-induced NFkappaB activation in HEK293 cells preincubated for 6 hrs followed by TNFalpha addition by luciferase reporter gene assay; assay type: cell-based; settings: Homo sapiens
# [8] = system: Human immunodeficiency virus 1; experiment: Antiviral activity against HIV1 infected in human C8166 cells; assay type: functional, organism-based; settings: Human immunodeficiency virus 1, C8166
# [9] = target: Sodium-dependent serotonin transporter (Homo sapiens, UniProt P31645); experiment: Inhibition of 5HT transporter (unknown origin)
# Dihydrofolate reductase [10] = target: T2, Dihydrofolate reductase (Homo sapiens, UniProt P00374); experiment: Inhibition of human DHFR
# T2 sequence (P00374 whole entry): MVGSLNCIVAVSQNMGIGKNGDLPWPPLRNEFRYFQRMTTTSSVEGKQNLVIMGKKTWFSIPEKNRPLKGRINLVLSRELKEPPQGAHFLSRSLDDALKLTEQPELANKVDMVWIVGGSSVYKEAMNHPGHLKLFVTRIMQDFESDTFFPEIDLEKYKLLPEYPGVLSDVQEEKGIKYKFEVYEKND
# Dihydrofolate reductase [11] = target: T3, Dihydrofolate reductase (Mycobacterium tuberculosis, UniProt P9WNX1); experiment: Inhibition of Mycobacterium tuberculosis H37Rv DHFR
# T3 sequence (P9WNX1 whole entry): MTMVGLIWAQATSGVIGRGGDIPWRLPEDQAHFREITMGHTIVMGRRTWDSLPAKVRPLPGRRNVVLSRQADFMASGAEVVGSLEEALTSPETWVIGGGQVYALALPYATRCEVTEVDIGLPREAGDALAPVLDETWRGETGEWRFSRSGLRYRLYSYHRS
# [12] = system: Human immunodeficiency virus 1; experiment: Antiviral activity against wild type HIV1 infected in human MT4 cells; assay type: functional, organism-based; settings: Human immunodeficiency virus 1, MT4
# [13] = system: Mycobacterium tuberculosis; experiment: Antimycobacterial activity against drug-sensitive Mycobacterium tuberculosis; assay type: functional
# Chain of Sodium-dependent serotonin transporter (P31645 whole entry): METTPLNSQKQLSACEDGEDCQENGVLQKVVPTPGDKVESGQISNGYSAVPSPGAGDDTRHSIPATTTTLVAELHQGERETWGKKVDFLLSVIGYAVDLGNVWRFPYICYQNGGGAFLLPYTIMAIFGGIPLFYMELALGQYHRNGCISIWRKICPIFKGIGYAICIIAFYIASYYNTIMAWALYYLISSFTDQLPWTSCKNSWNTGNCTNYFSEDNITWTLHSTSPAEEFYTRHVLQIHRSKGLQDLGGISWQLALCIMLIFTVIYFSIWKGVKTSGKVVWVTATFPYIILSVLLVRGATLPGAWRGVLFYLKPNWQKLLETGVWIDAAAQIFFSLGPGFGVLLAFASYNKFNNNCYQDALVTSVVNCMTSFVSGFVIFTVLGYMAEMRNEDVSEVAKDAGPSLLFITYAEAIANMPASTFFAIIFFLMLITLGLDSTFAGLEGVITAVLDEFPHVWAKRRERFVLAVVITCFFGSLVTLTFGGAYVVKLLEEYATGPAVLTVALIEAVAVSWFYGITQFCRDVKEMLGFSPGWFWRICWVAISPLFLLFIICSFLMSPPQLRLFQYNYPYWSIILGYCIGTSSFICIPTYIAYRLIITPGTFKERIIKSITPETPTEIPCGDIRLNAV
structure (smiles),measurement,setting,value
O=C(NN1C(=O)CSC1c1ccc([N+](=O)[O-])cc1)c1[nH]c2ccc(F)cc2c1-c1ccccc1 (stereo not drawn),MIC99,[1],6.25 µg/mL
CO[C@H]1/C=C/O[C@@]2(C)Oc3c(C)c(O)c4c(O)c(c(/C=N/N5CCN(C)CC5)c(O)c4c3C2=O)NC(=O)/C(C)=C\C=C\[C@H](C)[C@H](O)[C@@H](C)[C@@H](O)[C@@H](C)[C@H](OC(C)=O)[C@@H]1C [RIFAMPIN],MIC99,[1],0.25 µg/mL
CC(C)=C[C@H]1C[C@](C)(/C=C/c2[nH]c3ccccc3c2CCN(C)C)n2c1c(CCN(C)C)c1ccccc12,IC50,Plasmodium falciparum,80 to 1420 nM
C#CCc1cn(C)c2c(O)cccc12,IC50,[2],6220 nM
same,IC50,RAW264.7 [3],39800 nM
Cc1c(CC(=O)O)c2cc(O)ccc2n1C(=O)c1ccc(Cl)cc1,Activity,Mus musculus,44.3%
CN(CCOc1ccc(CC2SC(=O)NC2=O)cc1)c1ccccn1 (stereo not drawn) [ROSIGLITAZONE],Activity,Mus musculus,66%
CC(=O)N1C(=O)/C(=N\c2ccc(S(=O)(=O)Nc3nc(C)cc(C)n3)cc2)c2ccccc21,EC50,[4],8000 nM
CCCCC(O)(c1c(NC(=O)OCC)[nH]c2ccc(Br)cc12)C(F)(F)F (stereo not drawn),IC50,[5],3 nM
N#Cc1c(-c2ccccc2)[nH]c2ccccc12,IC50,RAW264.7 [6],4800 nM
same,IC50,[7],8500 nM
C[C@@H]1CC[C@H]2[C@@H](C)C(=O)O[C@@H]3O[C@@]4(C)CC[C@@H]1[C@]32OO4 [ARTEMISININ],IC50,Plasmodium falciparum,80 to 1420 nM
CC1=C[C@@H]2c3c(CCN(C)C)c4ccccc4n3[C@@H](c3[nH]c4ccccc4c3CCN(C)C)[C@@H]2C(C)(C)C1,IC50,Plasmodium falciparum,80 nM
Cc1cn([C@H]2C[C@H](N=[N+]=[N-])[C@@H](CO)O2)c(=O)[nH]c1=O [ZIDOVUDINE],EC50,[8],1100 nM
CCOC(=O)Nc1[nH]c2ccc(Br)cc2c1C(C)(O)C(F)(F)F (stereo not drawn),IC50,[5],3 nM
Fc1cc2c(c(OCCNCCc3c[nH]c4ccc(F)cc34)c1)OCCC2,Ki,[9],5 nM
Cc1cc(C)nc(NS(=O)(=O)c2ccc(/N=C3\C(=O)Nc4ccccc43)cc2)n1,EC50,[4],8 µg/mL
COc1ccc2cc(-c3cc4ccccc4[nH]3)ccc2c1,IC50,[7],600 nM
CC(=O)c1c(C)n(Cc2ccccc2)c2ccc(OCCCC(=O)O)cc12,IC50,Dihydrofolate reductase [10],980000 nM
same,IC50,Dihydrofolate reductase [11],150000 nM
N#Cc1ccc(C2SCC(=O)N2NC(=O)c2[nH]c3ccc(F)cc3c2-c2ccccc2)cc1 (stereo not drawn),MIC99,[1],6.25 µg/mL
COP(=O)(c1cc(C)cc(/C=C/C#N)c1)c1c(C(N)=O)[nH]c2ccc(Cl)cc12 (stereo not drawn),IC50,[12],0.08 nM
CNCCc1c([C@H]2[C@H]3[C@H](C=C(C)CC3(C)C)c3c(CCNC)c4ccccc4n32)[nH]c2ccccc12,IC50,Plasmodium falciparum,80 to 1420 nM
O/N=C/c1c(-c2ccccc2)[nH]c2ccccc12,IC50,RAW264.7 [6],4400 nM
same,IC50,[7],6900 nM
CC(C)=C[C@H]1C[C@@](C)(/C=C/c2[nH]c3ccccc3c2CCN(C)C)n2c1c(CCN(C)C)c1ccccc12,IC50,Plasmodium falciparum,80 to 1420 nM
CNCCc1c(/C=C/[C@@]2(C)C[C@H](C=C(C)C)c3c(CCNC)c4ccccc4n32)[nH]c2ccccc12,IC50,Plasmodium falciparum,80 to 1420 nM
C[C@@H]1[C@H]2C[C@@H](C[C@H]1NC(=O)c1cc3c(F)cc(F)cc3[nH]1)C2(C)C,MIC,[13],0.012 µM
